ChEMBL document CHEMBL2202984, “16-morpholino quaternary ammonium steroidal derivatives as neuromuscular blocking agents: synthesis, biological evaluation and in silico probe of ligand-receptor interaction” (Eur J Med Chem, 2012)
Active and inactive are the calls of the source. No cut-off for these calls is given here.

Legend:
[1] = species on record: Mus musculus; assay: Inhibition of nAChR-mediated twitch response in mouse hemidiaphragm at IC90 in presence of neostigmine bromide
[2] = species on record: Mus musculus; assay: (§1) Inhibition of nAChR-mediated twitch response in mouse hemidiaphragm
[3] = as §1

| Compound | inhibition [1] | IC90 [2] [µM] | IC50 [3] [µM] |
| --- | --- | --- | --- |
| CC(=O)O[C@H]1[C@@H]([N+]2(C)CCOCC2)C[C@H]2[C@@H]3CC[C@H]4C[C@@H]([N+](C)(C)Cc5ccccc5)CC[C@]4(C)[C@H]3CC[C@@]21C | inactive | 6.38 | 4.54 |
| CC(=O)O[C@H]1[C@@H]([N+]2(C)CCOCC2)C[C@H]2[C@@H]3CC[C@H]4C[C@H]([N+](C)(C)C)CC[C@]4(C)[C@H]3CC[C@@]21C |  |  | 17.4 |
| CC(=O)O[C@H]1[C@@H]([N+]2(C)CCOCC2)C[C@H]2[C@@H]3CC[C@H]4C[C@@H]([N+](C)(C)c5ccccc5)CC[C@]4(C)[C@H]3CC[C@@]21C |  | 18.2 | 12.7 |
| C[C@]12CC[C@H](N3CC[N+](C)(C)CC3)C[C@@H]1CC[C@@H]1[C@@H]2CC[C@]2(C)[C@@H](O)[C@@H]([N+]3(C)CCOCC3)C[C@@H]12 |  |  | 24.5 |
| C[C@]12CC[C@H]([N+](C)(C)c3ccccc3)C[C@@H]1CC[C@@H]1[C@@H]2CC[C@]2(C)[C@@H](O)[C@@H]([N+]3(C)CCOCC3)C[C@@H]12 |  |  | 16.2 |
| CC(=O)O[C@H]1[C@@H]([N+]2(C)CCOCC2)C[C@H]2[C@@H]3CC[C@H]4C[C@@H]([N+](C)(C)C)CC[C@]4(C)[C@H]3CC[C@@]21C |  | 25 | 16.6 |
| C[C@]12CC[C@H]([N+](C)(C)C)C[C@@H]1CC[C@@H]1[C@@H]2CC[C@]2(C)[C@@H](O)[C@@H]([N+]3(C)CCOCC3)C[C@@H]12 |  |  | 21.4 |
| CC(=O)O[C@H]1[C@@H]([N+]2(C)CCOCC2)C[C@H]2[C@@H]3CC[C@H]4C[C@@H]([N+]5(C)CCCC5)CC[C@]4(C)[C@H]3CC[C@@]21C |  | 15.7 | 10.7 |
| C=CC[N+]1([C@H]2C[C@H]3[C@@H]4CC[C@H]5C[C@H](O)[C@@H](N6CCOCC6)C[C@]5(C)[C@H]4CC[C@]3(C)[C@H]2OC(C)=O)CCCC1 [ROCURONIUM BROMIDE] |  | 3.53 | 2.5 |
| C[C@]12CC[C@H]([N+]3(C)CCCC3)C[C@@H]1CC[C@@H]1[C@@H]2CC[C@]2(C)[C@@H](O)[C@@H]([N+]3(C)CCOCC3)C[C@@H]12 |  |  | 27.6 |
| CC(=O)O[C@H]1[C@@H]([N+]2(C)CCOCC2)C[C@H]2[C@@H]3CC[C@H]4C[C@@H](N5CC[N+](C)(C)CC5)CC[C@]4(C)[C@H]3CC[C@@]21C |  | 18.6 | 13.1 |
| CC(=O)O[C@H]1CC[C@@]2(C)[C@@H](CC[C@@H]3[C@@H]2CC[C@@]2(C)[C@H]3C[C@H]([N+]3(C)CCOCC3)[C@@H]2OC(C)=O)C1 |  | 29.4 | 19.8 |
| CC(=O)O[C@H]1[C@@H]([N+]2(C)CCOCC2)C[C@H]2[C@@H]3CC[C@H]4C[C@H](N5CC[N+](C)(C)CC5)CC[C@]4(C)[C@H]3CC[C@@]21C |  |  | 39.1 |
| CC(=O)O[C@H]1[C@@H]([N+]2(C)CCOCC2)C[C@H]2[C@@H]3CC[C@H]4C[C@H]([N+]5(C)CCCC5)CC[C@]4(C)[C@H]3CC[C@@]21C |  |  | 18.6 |
| C[C@]12CC[C@H]([N+](C)(C)Cc3ccccc3)C[C@@H]1CC[C@@H]1[C@@H]2CC[C@]2(C)[C@@H](O)[C@@H]([N+]3(C)CCOCC3)C[C@@H]12 |  |  | 18.5 |
| CC(=O)O[C@H]1[C@@H]([N+]2(C)CCOCC2)C[C@H]2[C@@H]3CC[C@H]4C[C@@H]([N+]5(C)CCCCC5)CC[C@]4(C)[C@H]3CC[C@@]21C | inactive | 5.46 | 3.49 |
| CC(=O)O[C@H]1[C@@H]([N+]2(C)CCOCC2)C[C@H]2[C@@H]3CC[C@H]4C[C@@H]([N+]5(C)CCOCC5)CC[C@]4(C)[C@H]3CC[C@@]21C |  | 50.7 | 33.9 |
| C[C@]12CC[C@H]([N+]3(C)CCOCC3)C[C@@H]1CC[C@@H]1[C@@H]2CC[C@]2(C)[C@@H](O)[C@@H]([N+]3(C)CCOCC3)C[C@@H]12 |  |  | 38.9 |
| C[C@]12CC[C@H]([N+]3(C)CCCCC3)C[C@@H]1CC[C@@H]1[C@@H]2CC[C@]2(C)[C@@H](O)[C@@H]([N+]3(C)CCOCC3)C[C@@H]12 |  |  | 13.6 |
| CC(=O)O[C@H]1C[C@@H]2CC[C@@H]3[C@H](CC[C@@]4(C)[C@H]3C[C@H]([N+]3(C)CCCCC3)[C@@H]4OC(C)=O)[C@@]2(C)C[C@@H]1N1CCCCC1 [VECURONIUM BROMIDE] |  | 0.44 | 0.31 |
